According to patent publication US20240150293A1, “SPIROCYCLOHEXANE DERIVATIVES, PHARMACEUTICAL COMPOSITIONS CONTAINING THEM AND THEIR USES AS ANTI-APOPTOTIC INHIBITORS” (LES LABORATOIRES SERVIER, priority 2021, published 2024):
pIC50, pKi: −log10 of the molar value.

Key:
[1] = biological target: Cy5-labelled Mcl1 (amino acids 171-321) C286S protein (UniProtKB Q07820) (Homo sapiens (Human), UniProt Q07820, C286S); experiment: Inhibition of Mcl-1 by the fluorescence quenching assay (Example A, Method B); type: binding
Cy5-labelled Mcl1 (amino acids 171-321) C286S protein, sequence (Q07820 171-321 C286S): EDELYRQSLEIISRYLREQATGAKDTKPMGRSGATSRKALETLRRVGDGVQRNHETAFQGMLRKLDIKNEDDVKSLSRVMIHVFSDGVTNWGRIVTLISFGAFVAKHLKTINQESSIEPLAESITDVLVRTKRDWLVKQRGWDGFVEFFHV
How it was run: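 Eleven-point compound series incubated 2 h at room temperature with 1 nM Cy5-tagged protein and quencher-labelled PUMA peptide at 10, 20 or 400 nM in HEPES/NaCl/Tween 20, pH 7.4, 5% DMSO. IC50 for 50% fluorescence increase by 4-parameter fit, then Ki derived (complete cKi or estimated eKi).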

NCI-H929 cell lines = experiment: In vitro cytotoxicity, CellTiter-Glo (CTG) assay (Example B, Method B); type: cell-based; details: Homo sapiens, NCI-H929, 48 h, NCI-H929 cells, 48 h incubation, read-out: C50
How it was run: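 ATP-based luminescence (CellTiter-Glo) after 48 h incubation at 37° C., 5% CO2 gave NCI-H929 viability. Eleven concentrations tested, highest final 30 μM, dispensed acoustically from 10 mM DMSO stocks; C50 defined as concentration reaching 50% viability.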

| SMILES | pKi [1] | pIC50 (NCI-H929 cell lines) |
| --- | --- | --- |
| CC[C@@H]1COc2cc3c(cc2O1)C[C@H](C[C@@H](C)COc1ccnc2c1[C@H](C)CCC2)[C@]31CC[C@](Nc2cccc(Cl)c2)(C(=O)O)CC1 [Example 980, (1r,2′R,4S,7′S)-4-(3-chloroanilino)-2′-ethyl-7′-[(2R)-2-methyl-3-{[(5R)-5-methyl-5,6,7,8-tetrahydroquinolin-4-yl]oxy}propyl]-2′,3′,7′,8′-tetrahydrospiro[cyclohexane-1,6′-indeno[5,6-b][1,4]dioxine]-4-carboxylic acid] | 9.99 | 6.85 |
| C[C@@H](COc1ccnc2c1[C@H](C)CCC2)C[C@H]1Cc2cc3c(cc2[C@]12CC[C@@](Nc1cccc(Cl)c1)(C(=O)O)CC2)O[C@@H](C)CCO3 [Example 984, (1r,4S,4'S,8′S)-4-(3-chloroanilino)-4′-methyl-8′-[(2R)-2-methyl-3-{[(5R)-5-methyl-5,6,7,8-tetrahydroquinolin-4-yl]oxy}propyl]-3′,4′,8′,9′-tetrahydro-2′H-spiro[cyclohexane-1,7′-indeno[5,6-b][1,4]dioxepine]-4-carboxylic acid] | 11.14 | 7.45 |
| C[C@@H](COc1ccnc2c1[C@H](C)CCC2)C[C@H]1Cc2cc3c(cc2[C@]12CC[C@@](Nc1cccc(Cl)c1)(C(=O)O)CC2)OCC[C@@H](C)O3 [Example 986, (1r,2′R,4S,8′S)-4-(3-chloroanilino)-2′-methyl-8′-[(2R)-2-methyl-3-{[(5R)-5-methyl-5,6,7,8-tetrahydroquinolin-4-yl]oxy}propyl]-3′,4′,8′,9′-tetrahydro-2′H-spiro[cyclohexane-1,7′-indeno[5,6-b][1,4]dioxepine]-4-carboxylic acid] | 10.47 | 7.06 |

More lines, in order of rising pKi [1], values ahead:

| pKi [1] | SMILES | pIC50 (NCI-H929 cell lines) |
| --- | --- | --- |
| 10.02 | C[C@@H](COc1ccnc2c1[C@H](C)CCC2)C[C@H]1Cc2cc3c(cc2[C@]12CC[C@@](Nc1cccc(Cl)c1)(C(=O)O)CC2)OCC[C@H](C)O3 [Example 985, (1r,2′S,4S,8′S)-4-(3-chloroanilino)-2′-methyl-8′-[(2R)-2-methyl-3-{[(5R)-5-methyl-5,6,7,8-tetrahydroquinolin-4-yl]oxy}propyl]-3′,4′,8′,9′-tetrahydro-2′H-spiro[cyclohexane-1,7′-indeno[5,6-b][1,4]dioxepine]-4-carboxylic acid] | 6.92 |
| 10.35 | C[C@@H](COc1ccnc2c1[C@H](C)CCC2)C[C@H]1Cc2cc3c(cc2[C@]12CC[C@@](Nc1cccc(Cl)c1)(C(=O)O)CC2)OCC1(CC1)CO3 [Example 994, (1r,4S,8′S)-4-(3-chloroanilino)-8′-[(2R)-2-methyl-3-{[(5R)-5-methyl-5,6,7,8-tetrahydroquinolin-4-yl]oxy}propyl]-8′,9′-dihydro-2′H,4′H-dispiro[cyclohexane-1,7′-indeno[5,6-b][1,4]dioxepine-3′,1″-cyclopropane]-4-carboxylic acid] | 7.22 |
| 10.62 | C[C@@H](COc1ccnc2c1[C@H](C)CCC2)C[C@H]1Cc2cc3c(cc2[C@]12CC[C@@](Nc1cccc(Cl)c1)(C(=O)O)CC2)OCC(C)(C)CO3 [Example 981, (1r,4S,8′S)-4-(3-chloroanilino)-3′,3′-dimethyl-8′-[(2R)-2-methyl-3-{[(5R)-5-methyl-5,6,7,8-tetrahydroquinolin-4-yl]oxy}propyl]-3′,4′,8′,9′-tetrahydro-2′H-spiro[cyclohexane-1,7′-indeno[5,6-b][1,4]dioxepine]-4-carboxylic acid] | 7.07 |
| 11.35 | C[C@@H](COc1ccnc2c1[C@H](C)CCC2)C[C@H]1Cc2cc3c(cc2[C@]12CC[C@@](Nc1cccc(Cl)c1)(C(=O)O)CC2)O[C@H](C)CCO3 [Example 987, (1r,4S,4′R,8′S)-4-(3-chloroanilino)-4′-methyl-8′-[(2R)-2-methyl-3-{[(5R)-5-methyl-5,6,7,8-tetrahydroquinolin-4-yl]oxy}propyl]-3′,4′,8′,9′-tetrahydro-2′H-spiro[cyclohexane-1,7′-indeno[5,6-b][1,4]dioxepine]-4-carboxylic acid] | 7.42 |
